# pIC50: −log10 of the molar value. Values joined by “and” are separate entries in the source; they are usually repeats but may differ in a detail not shown here. Equal entries are not always repeated.
# Target: ROCK2 (Homo sapiens (Human), UniProt O75116)
# Assay: ROCK assay (peptide substrate phosphorylation, LABCHIP 3000 Reader)
# Format: biochemical
# Settings: not given
# Protocol: Compounds were dissolved in DMSO so that the final concentration of DMSO was <2%, and the reaction was initiated with Rho kinase variants. After incubation, the reaction was terminated by the addition of EDTA and the phosphorylated and non-phosphorylated peptides separated using a LABCHIP® 3000 Reader (Caliper Life Sciences). […] Compounds were tested in dose-response format, and the inhibition of kinase activity was calculated at each concentration of compound.
# ROCK2, sequence (O75116 whole entry, species assumed): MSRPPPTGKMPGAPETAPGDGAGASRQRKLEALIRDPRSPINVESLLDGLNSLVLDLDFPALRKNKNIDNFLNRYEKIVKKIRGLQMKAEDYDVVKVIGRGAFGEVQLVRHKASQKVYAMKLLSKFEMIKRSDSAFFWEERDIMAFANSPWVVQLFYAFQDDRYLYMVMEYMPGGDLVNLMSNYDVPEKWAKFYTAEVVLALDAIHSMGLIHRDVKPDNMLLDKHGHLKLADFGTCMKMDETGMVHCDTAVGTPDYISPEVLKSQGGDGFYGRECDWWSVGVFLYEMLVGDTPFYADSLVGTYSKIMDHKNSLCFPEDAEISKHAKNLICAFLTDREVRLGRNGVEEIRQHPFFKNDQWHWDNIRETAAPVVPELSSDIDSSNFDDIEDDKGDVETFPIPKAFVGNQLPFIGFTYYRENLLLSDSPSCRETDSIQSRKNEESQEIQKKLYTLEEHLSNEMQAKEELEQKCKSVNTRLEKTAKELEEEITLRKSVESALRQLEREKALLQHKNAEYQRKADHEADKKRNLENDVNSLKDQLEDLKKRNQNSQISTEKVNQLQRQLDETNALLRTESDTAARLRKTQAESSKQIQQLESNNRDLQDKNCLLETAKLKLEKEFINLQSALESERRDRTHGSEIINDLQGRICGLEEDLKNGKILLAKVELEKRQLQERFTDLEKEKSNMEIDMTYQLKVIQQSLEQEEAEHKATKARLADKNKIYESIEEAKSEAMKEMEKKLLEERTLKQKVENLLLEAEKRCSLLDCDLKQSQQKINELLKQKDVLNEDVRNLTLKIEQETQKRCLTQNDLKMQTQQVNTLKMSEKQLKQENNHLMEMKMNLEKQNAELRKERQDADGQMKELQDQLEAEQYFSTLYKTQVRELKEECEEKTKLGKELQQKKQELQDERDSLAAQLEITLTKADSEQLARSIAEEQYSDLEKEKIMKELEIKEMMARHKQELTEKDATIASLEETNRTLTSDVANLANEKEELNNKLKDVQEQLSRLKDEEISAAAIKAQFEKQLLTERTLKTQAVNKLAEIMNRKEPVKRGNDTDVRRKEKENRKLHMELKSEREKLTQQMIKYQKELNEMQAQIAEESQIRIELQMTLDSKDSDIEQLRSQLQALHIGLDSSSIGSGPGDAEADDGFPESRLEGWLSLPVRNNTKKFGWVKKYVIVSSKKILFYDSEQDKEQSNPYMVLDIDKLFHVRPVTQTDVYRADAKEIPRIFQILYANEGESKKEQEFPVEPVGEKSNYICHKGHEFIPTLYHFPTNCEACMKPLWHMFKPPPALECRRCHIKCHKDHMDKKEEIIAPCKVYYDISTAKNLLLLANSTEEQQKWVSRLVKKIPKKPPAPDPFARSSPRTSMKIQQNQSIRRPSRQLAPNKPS
row,Structure (SMILES),pIC50
1,"N#Cc1cc(C(=O)N2C[C@H](O)C[C@@H]2c2ccccc2F)ccc1-c1cn[nH]c1 [Example 96, 5-[(2R,4R)-2-(2-Fluorophenyl)-4-hydroxypyrrolidine-1-carbonyl]-2-(1H-pyrazol-4-yl)benzonitrile]",6.18
2,"COc1cc(C(=O)N2CCC[C@@H]2C(=O)N2CCc3ccccc32)ccc1-c1cn[nH]c1 [Example 111, 1-[(2R)-1-[3-Methoxy-4-(1H-pyrazol-4-yl)benzoyl]pyrrolidine-2-carbonyl]-2,3-dihydro-1H-indole]",6.30

# Same assay, conditions: 5 μM ATP, 1.5 μM peptide substrate
row,pIC50,Structure (SMILES)
1,7.62,"COc1cccc(C2CCCN2C(=O)c2ccc(-c3ccncc3F)c(OC)c2)c1 (stereo not shown) [Example 84, 3-fluoro-4-{2-methoxy-4-[2-(3-methoxyphenyl)pyrrolidine-1-carbonyl]phenyl}pyridine]"
2,8.27,"COc1cc(C(=O)N2CC(OC)C[C@@H]2c2cccc(C(=O)NCC3CC3)c2)ccc1-c1cn[nH]c1 (stereo partly drawn) [Example 86, N-(Cyclopropylmethyl)-3-[(2R)-4-methoxy-1-[3-methoxy-4-(1H-pyrazol-4-yl)benzoyl]pyrrolidin-2-yl]benzamide]"
3,6.34,"COc1cc(C(=O)N2CC(OC)C[C@@H]2c2cccc(C(=O)N(C)CC3CC3)c2)ccc1-c1cn[nH]c1 (stereo partly drawn) [Example 87, N-(Cyclopropylmethyl)-3-[(2R)-4-methoxy-1-[3-methoxy-4-(1H-pyrazol-4-yl)benzoyl]pyrrolidin-2-yl]-N-methylbenzamide]"
4,7.97,"COc1cc(C(=O)N2C[C@](C)(O)C[C@@H]2c2cccc(C(=O)NCC3CC3)c2)ccc1-c1cn[nH]c1 [Example 88, N-(Cyclopropylmethyl)-3-[(2R,4R)-4-hydroxy-1-[3-methoxy-4-(1H-pyrazol-4-yl)benzoyl]-4-methylpyrrolidin-2-yl]benzamide]"
5,6.11,"COc1cc(C(=O)N2CC(OC(C)=O)C[C@@H]2c2cccc(S(C)(=O)=O)c2)ccc1-c1cn[nH]c1 (stereo partly drawn) [Example 89, (5R)-5-(3-Methanesulfonylphenyl)-1-[3-methoxy-4-(1H-pyrazol-4-yl)benzoyl]pyrrolidin-3-yl acetate]"
6,7.07,"COc1cc(C(=O)N2CC(O)C[C@@H]2c2cccc(S(C)(=O)=O)c2)ccc1-c1cn[nH]c1 (stereo partly drawn) [Example 90, (5R)-5-(3-Methanesulfonylphenyl)-1-[3-methoxy-4-(1H-pyrazol-4-yl)benzoyl]pyrrolidin-3-ol]"
7,8.10,"COc1cc(C(=O)N2C[C@H](O)C[C@@H]2c2ccccc2F)ccc1-c1cn[nH]c1 [Example 92, (3R,5R)-5-(2-Fluorophenyl)-1-[3-methoxy-4-(1H-pyrazol-4-yl)benzoyl] pyrrolidin-3-ol]"
8,8.34,"COc1cc(C(=O)N2C[C@@H](O)C[C@@H]2c2ccccc2F)ccc1-c1cn[nH]c1 [Example 93, (3S,5R)-5-(2-Fluorophenyl)-1-[3-methoxy-4-(1H-pyrazol-4-yl)benzoyl] pyrrolidin-3-ol]"
9,7.13,"O=C(c1ccc(-c2cn[nH]c2)c(OC(F)F)c1)N1C[C@H](O)C[C@@H]1c1ccccc1F [Example 94, (3R,5R)-1-[3-(Difluoromethoxy)-4-(1H-pyrazol-4-yl)benzoyl]-5-(2-fluorophenyl)pyrrolidin-3-ol]"
10,7.36 and 7.55,"O=C(c1ccc(-c2cn[nH]c2)c(OC(F)F)c1)N1C[C@@H](O)C[C@@H]1c1ccccc1F [Example 95, (3S,5R)-1-[3-(Difluoromethoxy)-4-(1H-pyrazol-4-yl)benzoyl]-5-(2-fluorophenyl)pyrrolidin-3-ol]"
11,6.14,"COc1cc(-c2cn[nH]c2)ccc1C(=O)N1C[C@H](O)C[C@@H]1c1ccccc1F [Example 98, (3R,5R)-5-(2-Fluorophenyl)-1-[2-methoxy-4-(1H-pyrazol-4-yl)benzoyl] pyrrolidin-3-ol]"
12,6.21,"CS(=O)(=O)c1cccc([C@H]2CC(O)CN2C(=O)c2ccc(-c3ccnc4[nH]ccc34)cc2)c1 (stereo partly drawn) [Example 99, (5R)-5-(3-methanesulfonyl-phenyl)-1-(4-{1H-pyrrolo [2,3-b]pyridin-4-yl}benzoyl) pyrrolidin-3-ol]"
13,6.64,"COc1cccc(C2CCCN2C(=O)c2ccc(-c3cn[nH]c3)c(C(C)O)c2)c1 (stereo not shown) [Example 100, 1-{5-[2-(3-Methoxyphenyl)pyrrolidine-1-carbonyl]-2-(1H-pyrazol-4-yl)phenyl}ethan-1-ol]"
14,7.19,"CCc1cc(C(=O)N2CC(O)C[C@@H]2c2ccccc2F)ccc1-c1cn[nH]c1 (stereo partly drawn) [Example 101, (5R)-1-[3-Ethyl-4-(1H-pyrazol-4-yl)benzoyl]-5-(2-fluorophenyl) pyrrolidin-3-ol]"
15,6.39,"COc1cc(C(=O)N2CCCC2c2cccc(OCC(F)F)c2)ccc1-c1cn[nH]c1 (stereo not shown) [Example 102, 4-(4-{2-[3-(2,2-Difluoroethoxy)phenyl]pyrrolidine-1-carbonyl}-2-methoxyphenyl)-1H-pyrazole]"
16,7.21,"COc1cc(C(=O)N2CCCC2c2cccc(OCc3cc(C)on3)c2)ccc1-c1cn[nH]c1 (stereo not shown) [Example 103, 3-(3-{1-[3-Methoxy-4-(1H-pyrazol-4-yl)benzoyl]pyrrolidin-2-yl}phenoxymethyl)-5-methyl-1,2-oxazole]"
17,5.86,"COc1cc(C(=O)N2CCCC2c2cccc(OC3CCN(C)CC3)c2)ccc1-c1cn[nH]c1 (stereo not shown) [Example 104, 4-(3-{1-[3-Methoxy-4-(1H-pyrazol-4-yl)benzoyl]pyrrolidin-2-yl}phenoxy)-1-methylpiperidine]"
18,6.56,"COc1cc(C(=O)N2CCCC2c2cccc(NC3CCN(C)CC3)c2)ccc1-c1cn[nH]c1 (stereo not shown) [Example 105, N-(3-{1-[3-Methoxy-4-(1H-pyrazol-4-yl)benzoyl]pyrrolidin-2-yl}phenyl)-1-methylpiperidin-4-amine]"
19,9.06,"COc1cc(C(=O)N2C[C@@H](N)C[C@@H]2c2ccccc2F)ccc1-c1cn[nH]c1 [Example 106, (3S,5R)-5-(2-Fluorophenyl)-1-[3-methoxy-4-(1H-pyrazol-4-yl)benzoyl] pyrrolidin-3-amine]"
20,8.78,"COc1cc(C(=O)N2C[C@H](N)C[C@@H]2c2ccccc2F)ccc1-c1cn[nH]c1 [Example 107, (3R,5R)-5-(2-Fluorophenyl)-1-[3-methoxy-4-(1H-pyrazol-4-yl)benzoyl] pyrrolidin-3-amine]"
21,8.12,"COc1cc(C(=O)N2CC(O)C[C@@H]2c2ccc3cn[nH]c3c2)ccc1-c1cn[nH]c1 (stereo partly drawn) [Example 108, (5R)-5-(1H-Indazol-6-yl)-1-[3-methoxy-4-(1H-pyrazol-4-yl)benzoyl] pyrrolidin-3-ol]"
22,6.04,"COc1cc(C(=O)N2CC(O)C[C@@H]2c2ccc3c(I)n[nH]c3c2)ccc1-c1cn[nH]c1 (stereo partly drawn) [Example 109, (5R)-5-(3-Iodo-1H-indazol-6-yl)-1-[3-methoxy-4-(1H-pyrazol-4-yl)benzoyl]pyrrolidin-3-ol]"
23,7.82,"CCNS(=O)(=O)c1cccc([C@H]2CCCN2C(=O)c2ccc(-c3cn[nH]c3)c(OC)c2)c1 [Example 112, N-Ethyl-3-[(2R)-1-[3-methoxy-4-(1H-pyrazol-4-yl)benzoyl]pyrrolidin-2-yl]benzene-1-sulfonamide]"

row,Structure (SMILES),pIC50
1,"N#Cc1cc(C(=O)N2C[C@H](O)C[C@@H]2c2ccccc2F)ccc1-c1cn[nH]c1 [Example 97, 5-[(2R)-2-(2-Fluorophenyl)-4-hydroxypyrrolidine-1-carbonyl]-2-(1H-pyrazol-4-yl)benzonitrile]",6.14
2,"COc1cc(C(=O)N2CCC[C@@H]2C(=O)Nc2ccccc2)ccc1-c1cn[nH]c1 [Example 110, (2R)-1-[3-Methoxy-4-(1H-pyrazol-4-yl)benzoyl]-N-phenylpyrrolidine-2-carboxamide]",6.33

# System: spontaneously hypertensive rat, renal hypertensive rat and deoxycortisone acetate salt hypertensive rat models
# Assay: not given
# Settings: control rats; cited from earlier work
row,Structure (SMILES),blood pressure
1,"C[C@@H](N)[C@H]1CC[C@H](C(=O)Nc2ccncc2)CC1 [Example Y-27632, Y-27632]",only a minor effect on blood pressure

# Same assay, conditions: three rat models of hypertension; cited from earlier work
row,Structure (SMILES),blood pressure
1,"C[C@@H](N)[C@H]1CC[C@H](C(=O)Nc2ccncc2)CC1 [Example Y-27632, Y-27632]",significantly decrease blood pressure

# System: neointimal formation in rats
# Assay: not given
# Settings: balloon injury model; cited from earlier work
row,Structure (SMILES),neointimal formation
1,"C[C@@H](N)[C@H]1CC[C@H](C(=O)Nc2ccncc2)CC1 [Example Y-27632, Y-27632]",inhibited neointimal formation

# System: IL-1 beta-induced coronary stenosis
# Assay: not given
# Settings: long term treatment; cited from earlier work
Structure (SMILES),coronary constrictive remodeling,coronary stenosis
O=S(=O)(c1cccc2cnccc12)N1CCCNCC1 [fasudil],promote a regression of coronary constrictive remodeling,progressively reduce coronary stenosis

# System: rat stroke model
# Assay: not given
# Settings: in vivo; cited from earlier work
row,Structure (SMILES),infarct size and neurologic deficit
1,O=S(=O)(c1cccc2cnccc12)N1CCCNCC1 [fasudil],reduce both the infarct size and neurologic deficit

# System: Dahl salt-sensitive rats
# Assay: not given
# Settings: rat, in vivo; cited from earlier work
row,Structure (SMILES),"ventricular hypertrophy, fibrosis and function"
1,"C[C@@H](N)[C@H]1CC[C@H](C(=O)Nc2ccncc2)CC1 [Example Y-27632, Y-27632]","improve ventricular hypertrophy, fibrosis and function"
